# Test results published in patent US9839614B2, “Nanoparticle and polymer formulations for thyroid hormone analogs, antagonists, and formulations and uses thereof” (NANOPHARMACEUTICALS LLC, priority 2009, dated 2017).
# “And” between values parts separate entries of the source, which are not always exact repeats. Equal values may be shown once.
# Columns and labels:
# [1] = test system: chick chorioallantoic membrane (CAM) blood vessel branching; experiment: Chorioallantoic membrane (CAM) model of angiogenesis; type: in vivo; details: for ANGIOGENESIS INDEX: n = 8 per group; for effect on angiogenesis, representative illustrations (FIG. 23): in vivo
# Method: In vivo neovascularization was examined by methods described previously. 9-12 Ten-day-old chick embryos were purchased from SPAFAS (Preston, Conn.) and incubated at 37° C. with 55% relative humidity. A hypodermic needle was used to make a small hole in the shell concealing the air sac, and a second hole was made on the broad side of the egg, directly over an avascular portion of the embryonic membrane that was identified by candling. A false air sac was created beneath the second hole by the application of negative pressure at the first hole, causing the CAM to separate from the shell. A window approximately 1.0 cm^2 was cut in the shell over the dropped CAM with a small-crafts grinding wheel (Dremel, division of Emerson Electric Co.), allowing direct access to the underlying CAM. […] Sterile disks of No. 1 filter paper (Whatman International) were pretreated with 3 mg/mL cortisone acetate and 1 mmol/L PTU and air dried under sterile conditions. Thyroid hormone, hormone analogs, FGF2 or control solvents, and inhibitors were then applied to the disks and the disks allowed to dry. The disks were then suspended in PBS and placed on growing CAMs. […] At 24 hours, the MAPK cascade inhibitor PD 98059 was also added to CAMs topically by means of the filter disks.
# After incubation at 37° C. with 55% relative humidity for 3 days, the CAM tissue directly beneath each filter disk was resected from control and treated CAM samples. Tissues were washed 3× with PBS, placed in 35-mm Petri dishes (Nalge Nunc), and examined under an SV6 stereomicroscope (Zeiss) at X50 magnification. Digital images of CAM sections exposed to filters were collected using a 3-charge-coupled device color video camera system (Toshiba) and analyzed with Image-Pro software (Media Cybernetics). The number of vessel branch points contained in a circular region equal to the area of each filter disk were counted. One image was counted in each CAM preparation, and findings from 8 to 10 CAM preparations were analyzed for each treatment condition (thyroid hormone or analogs, FGF2, FGF2 antibody, PD 98059). In addition, each experiment was performed 3 times. The resulting angiogenesis index is the mean±SEM of new branch points.
# ECV304 endothelial cells = experiment: FGF2 release from ECV304 endothelial cells (ELISA); type: cell-based; details: T3 0.01 μmol/L, 3 days
# Method: ECV304 endothelial cells were cultured in M199 medium supplemented with 10% fetal bovine serum. […] After 72 hours, the supernatants were harvested and assays for FGF performed without dilution using a commercial ELISA system (R&D Systems) (See Davis et al., Circ Res 94:1500-1506 (2004)).
# [2] = test system: matrigel plug angiogenesis; experiment: Mouse matrigel model of angiogenesis (plug hemoglobin); type: in vivo, mice (C57BL/6NCr)
# Method: Normal male mice (C57BL/6NCr) 6-8 weeks of age and weighing ˜20 g were purchased from Taconic farm. Animals were housed 4 per cage, in controlled conditions of temperature (20-24° C.); humidity (60-70%) and 12 hrs. light/dark cycle provided with food and water ad libitum. […] Aliquots of matrigel were placed into cold polypropylene tubes to prevent the matrigel from solidifying and the angiogenesis promoter added to matrigel with or without agonist. Mice were treated daily. Matrigel was subcutaneously injected as triple injection per animal at 100 μL/animal. At day 14 post plug implant all animals were killed in CO2 chamber and matrigel plugs were collected. Plug hemoglobin content was analyzed from three implants/mice (n=6 per group) to measure angiogenesis.
# The matrigel plugs dissected from the mice were carefully stripped of any remaining peritoneum. The plugs were placed into 0.5 mL tube of ddH2O and homogenized for 5-10 min. […] Absorbance was read with a Microplate Manager ELISA reader at 540 nm. […] Hemoglobin concentration is a reflection of the number of blood vessels in the plugs.
# [3] = 10 μg/matrigel plug, day 14, n = 6-7
# [4] = T4 + antagonist, each 10 μg/matrigel plug
# [5] = FGF (1.25 μg/ml) + Tetrac or analog at 10 μg/plug
# [6] = FGF (1.25 μg/ml) + Tetrac or analog at 10 μg/plug, n = 8
# [7] = FGF 100 ng + Tetrac or analog 10 μg/plug
# [8] = FGF 100 ng + Tetrac or analog 10 μg/plug, n = 7-14
molecule,measurement,setting,value
CC(C)[Si](OC(=O)Cc1cc(I)c(Oc2cc(I)c(OCC3CO3)c(I)c2)c(I)c1)(C(C)C)C(C)C (centres unmarked),melting point,,120 °C
CC(C)[Si](OC(=O)C(Cc1cc(I)c(Oc2cc(I)c(OCC3CO3)c(I)c2)c(I)c1)NC(=O)OC(C)(C)C)(C(C)C)C(C)C (centres unmarked) (hydrate or solvate),melting point,,109 °C
"CC(C)(C)OC(=O)NC(Cc1cc(I)c(Oc2cc(I)c(OCC3CO3)c(I)c2)c(I)c1)C(=O)OCC1CO1 (centres unmarked) (hydrate or solvate) [T4 analog 14, Oxiran-2-ylmethyl-2-(tert-butoxycarbonylamino)-3-(4-(3,5-diiodo-4-(oxiran-2-ylmethoxy)phenoxy)-3,5-diiodophenyl)propanoate]",melting point,,105 °C
"N[C@@H](Cc1cc(I)c(Oc2ccc(O)c(I)c2)c(I)c1)C(=O)O [Compound T3, 3,5,3′-triiodo-L-thyronine]",generation of new blood vessels from existing vessels promoted,[1]; 10^−7-10^−9M,two-to three-fold
same,FGF2 (pg/mL/10^6 cells),ECV304 endothelial cells,98.8 ± 0.5 pg/mL/10^6 cells
"O=C(O)CCc1cc(I)c(Oc2ccc(O)cc2)c(I)c1 [DITPA, 3,5-diiodothyropropionic acid]",ANGIOGENESIS INDEX,[1]; 0.01 uM,133.0 ± 11.6
same,ANGIOGENESIS INDEX,[1]; 0.1 uM,167.3 ± 12.7
same,ANGIOGENESIS INDEX,[1]; 0.2 mM,117.9 ± 5.6
"Cc1cc(OCC(=O)O)cc(C)c1Cc1ccc(O)c(C(C)C)c1 [GC-1, 3,5-dimethyl-4-(4′-hydroxy-3′-isopropylbenzyl)-phenoxy acetic acid]",ANGIOGENESIS INDEX,[1]; 0.01 uM,169.6 ± 11.6
same,ANGIOGENESIS INDEX,[1]; 0.1 uM,152.7 ± 9.0
O=C(O)C(Cc1cc(I)c(Oc2cc(I)c(O)c(I)c2)c(I)c1)NC(c1ccccc1)(c1ccccc1)c1ccccc1 (centres unmarked) [PRIAB2],Branch pts ± SEM,[1]; 0.1 μM,136.0 ± 18.1
CNC(Cc1cc(I)c(Oc2cc(I)c(O)c(I)c2)c(I)c1)C(=O)O (centres unmarked) [PRIAB6],Branch pts ± SEM,[1]; 0.1 μM,136.2 ± 12.4
CCNC(Cc1cc(I)c(Oc2cc(I)c(O)c(I)c2)c(I)c1)C(=O)O (centres unmarked) [PRIAB12],Branch pts ± SEM,[1]; 0.1 μM,121.7 ± 13.6
"CC(C)(C)OC(=O)NC(Cc1cc(I)c(Oc2cc(I)c(O)c(I)c2)c(I)c1)C(=O)O (centres unmarked) [T4 analog 7, 2-[(Tert-butoxycarbonyl)amino]-3-[4-(4-hydroxy-3,5-diiodophenoxy)-3,5-diiodophenyl]propanoic acid]",Branch pts ± SEM,"[1]; 0.1 μM, before conjugation",173 ± 9.9
"CNC(Cc1cc(I)c(Oc2cc(I)c(O)c(I)c2)c(I)c1)C(=O)[O-].O.O.[K+] (centres unmarked) [T4 analog 10, Potassium 3-[4-(4-hydroxy-3,5-diiodophenoxy)-3,5-diiodophenyl]-2-(methylamino)propanoate dihydrate]",Mean % of stimulation (comparing to PBS),[1]; 0.1 μM,43.8 ± 6.5%
same,Mean Branch points,"[1]; 0.1 μM, mean ± SEM, n = 8",105 ± 7
same,Hemoglobin (mg/mL) ± SEM,[2]; [3],0.8 ± 0.2 mg/mL
same,Mean stimulation of angiogenesis (%),"[2]; 10 μg/matrigel plug, dihydrate",87% and 87 ± 33%
"CCNC(Cc1cc(I)c(Oc2cc(I)c(O)c(I)c2)c(I)c1)C(=O)O (centres unmarked) [T4 analog 11, 2-(Ethylamino)-3-[4-(4-hydroxy-3,5-diiodophenoxy)-3,5-diiodophenyl]propanoic acid]","effect on angiogenesis, representative illustrations (FIG. 23)",[1],proangiogenesis effects
"CCNC(Cc1cc(I)c(Oc2cc(I)c(O)c(I)c2)c(I)c1)C(=O)OCC (centres unmarked) [T4 analog 12, Ethyl-2-(ethylamino)-3-[4-(4-hydroxy-3,5-diiodophenoxy)-3,5-diiodophenyl]propanoate]",Mean Branch points,[1]; FGF (1.25 μg/ml) + 12 (0.1 μM),46 ± 2
same,Mean % of stimulation (comparing to PBS),"[1]; FGF (1.25 μg/ml) + 12 (0.1 μM), (inhibition)",−37.9 ± 4 (inhibition) %
same,"effect on angiogenesis, representative illustrations (FIG. 23)",[1],anti-angiogenic
same,Hemoglobin (mg/mL) ± SEM,[2]; [4],0.4 ± 0.1 mg/mL
same,Mean inhibition of angiogenesis (%),[2]; [4],89 ± 11%
"CC(C)[Si](OC(=O)C(Cc1cc(I)c(Oc2cc(I)c(O)c(I)c2)c(I)c1)NC(=O)OC(C)(C)C)(C(C)C)C(C)C (centres unmarked) [T4 analog 13, Triisopropylsilyl-2-(tert-butoxycarbonylamino)-3-(4-(4-hydroxy-3,5-diiodophenoxy)-3,5-diiodophenyl)propanoate]",Mean Branch points,"[1]; 1 μM, mean ± SEM, n = 8",76 ± 7
same,Mean % Inhibition,[1]; [5],44 ± 13%
same,Mean Branch points,[1]; [6],105 ± 7
same,change in vivo at 1 µM,"[1]; Gallus gallus, topical, 1 μM, read-out: Mean % of stimulation (comparing to PBS)",4.1 ± 6.5%
same,Mean stimulation of angiogenesis (%),[2]; 10 μg/matrigel plug,0 ± 17%
same,Hemoglobin (mg/mL) ± SEM,[2]; [3],0.3 ± 0.1 mg/mL
"CC(C)(C)OC(=O)NC(Cc1cc(I)c(Oc2cc(I)c(OCC3CO3)c(I)c2)c(I)c1)C(=O)OCC1CO1 (centres unmarked) [T4 analog 14, Oxiran-2-ylmethyl-2-(tert-butoxycarbonylamino)-3-(4-(3,5-diiodo-4-(oxiran-2-ylmethoxy)phenoxy)-3,5-diiodophenyl)propanoate]",Mean % of stimulation (comparing to PBS),[1]; 1 μM,56.2 ± 7.5%
same,Mean Branch points,"[1]; 1 μM, mean ± SEM, n = 8",114 ± 11
same,Mean stimulation of angiogenesis (%),[2]; 10 μg/matrigel plug,0 ± 17%
same,Hemoglobin (mg/mL) ± SEM,[2]; [3],0.3 ± 0.1 mg/mL
"CC(C)(C)OC(=O)Cc1cc(I)c(Oc2cc(I)c(O)c(I)c2)c(I)c1 [Tetrac analog 3, tert-Butyl-2-(4-(4-hydroxy-3,5-diiodophenoxy)-3,5-diiodophenyl)acetate]",Mean inhibition of angiogenesis (%),[2]; [7],95 ± 14%
"O=C(Cc1cc(I)c(Oc2cc(I)c(O)c(I)c2)c(I)c1)NC1CCCCC1 [Tetrac analog 4, N-cyclohexyl-2-(4-(4-hydroxy-3,5-diiodophenoxy)-3,5-diiodophenyl)acetamide]",Mean % Inhibition,[1]; [5],15 ± 8%
same,Mean Branch points,[1]; [6],121 ± 4
same,Mean inhibition of angiogenesis (%),[2]; [7],104 ± 12%
same,Hemoglobin (mg/mL) ± SEM,[2]; [8],0.2 ± 0.1 mg/mL
"CC(C)[Si](OC(=O)Cc1cc(I)c(Oc2cc(I)c(O)c(I)c2)c(I)c1)(C(C)C)C(C)C [Tetrac analog 5, Triisopropylsilyl-2-(4-(4-hydroxy-3,5-diiodophenoxy)-3,5-diiodophenyl)acetate]",Mean % Inhibition,[1]; [5],75 ± 19%
same,Mean Branch points,[1]; [6],87 ± 11
same,Mean inhibition of angiogenesis (%),[2]; [7],104 ± 14%
same,Hemoglobin (mg/mL) ± SEM,[2]; [8],0.2 ± 0.1 mg/mL
same,melting point,,146 °C
"O=C(Cc1cc(I)c(Oc2cc(I)c(OCC3CO3)c(I)c2)c(I)c1)NC1CCCCC1 (centres unmarked) [Tetrac analog 6, N-cyclohexyl-2-(4-(3,5-diiodo-4-(oxiran-2-ylmethoxy)phenoxy)-3,5-diiodophenyl)acetamide]",Mean inhibition of angiogenesis (%),[2]; [7],80 ± 16%
same,Hemoglobin (mg/mL) ± SEM,[2]; [8],0.7 ± 0.1 mg/mL
same,melting point,,242 °C
"O=C(Cc1cc(I)c(Oc2cc(I)c(OCC3CO3)c(I)c2)c(I)c1)OCC1CO1 (centres unmarked) [Tetrac analog 8, Oxiran-2-ylmethyl-2-(4-(3,5-diiodo-4-(oxiran-2-ylmethoxy)phenoxy)-3,5-diiodophenyl)acetate]",melting point,,116 °C
"O=C(Cc1cc(I)c(Oc2cc(I)c(OCCCl)c(I)c2)c(I)c1)NC1CCCCC1 [Tetrac analog 15, 2-(4-(4-(2-chloroethoxy)-3,5-diiodophenoxy)-3,5-diiodophenyl)-N-cyclohexylacetamide]",melting point,,263 °C
"FGF2: human recombinant FGF2, standard proangiogenic agent",ANGIOGENESIS INDEX,[1]; 1 uM,155 ± 9
same,Branch pts ± SEM,[1]; 1.25 μg/ml,137.9 ± 7.5
same,Mean % of stimulation (comparing to PBS),[1]; FGF 1.25 μg/mL,78.1 ± 7.5%
same,Mean Branch points,[1]; FGF 1.25 μg/mL,130 ± 11
same,increase in angiogenesis / branch formation,[1]; FGF2 (1 μg/mL),2.2 fold and 2 fold
same,Mean Branch points,[1]; FGF (1.25 μg/ml) alone,130 ± 11
same,Hemoglobin (mg/mL) ± SEM,[2]; FGF 100 ng alone,2.4 ± 0.4 mg/mL
